Molecular target: T1, human FPTase (Homo sapiens, UniProt P49354+P49356)
T1 construct: made in house
Assay: In vitro inhibition of human farnesyl-protein transferase ([3H]-FPP incorporation into Ras-CVIM)
Type: biochemical
Settings: 100 nM Ras-CVIM, 30 min, read-out: IC50, inhibitory activity against human FPTase

CC(=O)O[C@H]1CC[C@]2(C)[C@H]3Cc4c(O)cc5c(c4O[C@@]3(C)CC[C@H]2C1(C)C)COC5=O [Compound II]
IC50: < 20 µM

COC1OC(OC)c2c1cc(O)c1c2O[C@@]2(C)CC[C@H]3C(C)(C)[C@@H](OC(C)=O)CC[C@]3(C)[C@H]2C1 (some centres unmarked) [Compound I]
IC50: < 20 µM

Reference: patent US5789438A, “Inhibitors of farnesyl-protein transferase” (Merck & Co., Inc., priority 1997, dated 1998)
